Experimental findings from patent publication US8012967B2, “Minor groove binders” (University of Strathclyde, priority 2006, dated 2011) are described below.

What all share (assay type): cell-based
In experiment [1] the test system is Streptococcus faecalis (NCTC 775). As to the kind of experiment: MIC, Streptococcus faecalis. Conditions: for MIC: read-out: Minimum inhibitory concentrations (MICs), St. faecalis. The method, then: (§1) The effects of compounds of the invention in relation to inhibiting the growth of various microorganisms was determined using methods known to those skilled in the art, for example in vitro methods as described in J. Med. Chem. 47, 2133-2156 (2004) and in vivo methods as described in J. Med. Microbiol. 46, 208-213 (1997), the disclosures of which documents are hereby incorporated by reference. In particular, minimum inhibitory concentrations (MICs) against microorganisms (e.g. S. Aureus, Streptococcus faecalis, Aspergillus niger, Candida albicans or Mycobacterium fortuitum) for compounds of the invention may be measured using procedures such as those described in A. J. Drummond and […] development of microbiological methods for phytochemical screening” Recent Res. Devel. […] The test wells on each 96 well microtitre plate were initially inoculated with culture medium (100 μL) using Mueller-Hinton Broth for antibacterial assays and Sabouraud Broth for antifungal assays. A solution of each test sample (100 μL) was added to one row of each plate and a series of doubling dilutions made for successive rows. Incubation was at 37° C. for antibacterial assay and 25° C. for antifungal assay. […] From the observed pattern of colour, the MIC was determined. All tests included sterility and growth controls.

Experiment [2] has as its system Staphylococcus aureus Strain 1 (BSAC04(1)) (Clinical isolate from Glasgow Royal Infirmary). Briefly: MIC, Staphylococcus aureus Strain 1. The following applies: Staphylococcus aureus, read-out: Minimum inhibitory concentrations (MICs), S aureus 1. As for the experimental part:
The effects of compounds of the invention in relation to inhibiting the growth of various microorganisms was determined using methods known to those skilled in the art, for example in vitro methods as described in J. Med. Chem. 47, 2133-2156 (2004) and in vivo methods as described in J. Med. Microbiol. 46, 208-213 (1997), the disclosures of which documents are hereby incorporated by reference.
In particular, minimum inhibitory concentrations (MICs) against microorganisms (e.g. S. Aureus, Streptococcus faecalis, Aspergillus niger, Candida albicans or Mycobacterium fortuitum) for compounds of the invention may be measured using procedures such as those described in A. J. Drummond and R. D. Waigh “The development of microbiological methods for phytochemical screening” Recent Res. Devel. Phytochem. 4, 143-152 (2000), the disclosures of which document are hereby incorporated by reference.
Sample dilutions were typically prepared by dissolving the test sample (2 mg) in sterile water (10 mL) to provide a working concentration of 200 μg/ml. The test wells on each 96 well microtitre plate were initially inoculated with culture medium (100 μL) using Mueller-Hinton Broth for antibacterial assays and Sabouraud Broth for antifungal assays. A solution of each test sample (100 μL) was added to one row of each plate and a series of doubling dilutions made for successive rows. Incubation was at 37° C. for antibacterial assay and 25° C. for antifungal assay. […] From the observed pattern of colour, the MIC was determined. All tests included sterility and growth controls.

The test system of experiment [3] is Aspergillus niger (IMI 1745). As to the kind of experiment: MIC, Aspergillus niger. The following applies: for MIC: read-out: Minimum inhibitory concentrations (MICs), A. niger. The method, then: as §1
Experiment [4] relates to Staphylococcus aureus Strain 2 (NCTC 6571). As to the kind of experiment: MIC, Staphylococcus aureus Strain 2. The following applies: for MIC: read-out: Minimum inhibitory concentrations (MICs), S. aureus 2. As for the experimental part:
as §1

In experiment [5] the test system is Candida albicans (NCPF3179). As to the kind of experiment: MIC, Candida albicans. The following applies: for MIC: read-out: Minimum inhibitory concentrations (MICs), C. albicans. The method, then:
as §1

[6] abbreviates: Enterococcus faecalis, NCTC775, value in parentheses, na = not active.
Where [7] appears, read: Enterococcus faecalis, NCTC775, value outside parentheses.
[8] abbreviates: value in parentheses, na = not active.
Where [9] appears, read: Aspergillus niger, value in parentheses, na = not active.
Where [10] appears, read: Aspergillus niger, value outside parentheses.
Where [11] appears, read: Staphylococcus aureus, NCTC6571, value in parentheses, na = not active.
Setting [12] is: Staphylococcus aureus, NCTC6571, value outside parentheses.

The structures appear in SMILES notation. Converted amounts (≈) assume the structure as drawn. Where two headings read alike, the source gives them in different places.

Take `COc1cccc(/C=C/c2ccc(C(=O)Nc3cc(C(=O)Nc4cc(C(=O)NCCN5CCOCC5)n(C)c4)n(C)c3)cc2)c1` [Example 1, 4-({[4-({4-[(E)-2-(3-Methoxyphenyl)ethenyl]benzoyl}amino)-1-methyl-1H-pyrrol-2-yl]carbonyl}amino)-1-methyl-N-[2-(4-morpholinyl)ethyl]-1H-pyrrole-2-carboxamide]: the MIC in experiment [1] (setting [6]) worked out at 50 µg/mL; in experiment [1] (setting [7]), 69 µM; in experiment [2] (setting [8]) it was 2 µg/mL; in experiment [2] (value outside parentheses), 2.7 µM; in experiment [3] (setting [9]) it was 100 µg/mL; in experiment [3] (setting [10]), 138 µM. The MIC is 8 µg/mL in experiment [4] (setting [11]) and 11 µM in experiment [4] (setting [12]).
Regarding `Cn1cccc1/C=C/c1ccc(C(=O)Nc2cc(C(=O)Nc3cc(C(=O)NCCN4CCOCC4)n(C)c3)n(C)c2)cc1` [Example 3, 1-Methyl-N-[1-methyl-5-({[2-(4-morpholinyl)ethyl]amino}carbonyl)-1H-pyrrol-3-yl]-4-({4-[(E)-2-(1-methyl-1H-pyrrol-2-yl)ethenyl]benzoyl}amino)-1H-pyrrole-2-carboxamide], the MIC is 12.5 µg/mL in experiment [1] (setting [6]); 16.4 µM in experiment [1] (setting [7]); 4 µg/mL in experiment [2] (setting [8]); 5.7 µM in experiment [2] (value outside parentheses); 100 µg/mL in experiment [3] (setting [9]); 143 µM in experiment [3] (setting [10]). Further, the MIC amounted to 16 µg/mL in experiment [4] (setting [11]) and 22.9 µM in experiment [4] (setting [12]).
As for `CN(C)CCCNC(=O)c1cc(NC(=O)c2cc(NC(=O)c3ccc(/C=C/c4cnc5ccccc5c4)cc3)cn2C)cn1C` [Example 5, N-[5-({[3-(Dimethylamino)propyl]amino}carbonyl)-1-methyl-1H-pyrrol-3-yl]-1-methyl-4-({4-[(E)-2-(3-quinolinyl)ethenyl]benzoyl}amino)-1H-pyrrole-2-carboxamide], the MIC in experiment [1] (setting [6]) is 50 µg/mL; in experiment [1] (setting [7]), 70 µM; in experiment [2] (setting [8]), 25 µg/mL; in experiment [2] (value outside parentheses), 35 µM; in experiment [3] (setting [9]) it was 50 µg/mL; in experiment [3] (setting [10]), 70 µM. For the same molecule, the MIC in experiment [4] (setting [11]) was found to be 25 µg/mL; in experiment [4] (setting [12]), 35 µM.
For the molecule `COc1cccc(/C=C/c2cccc(C(=O)Nc3cc(C(=O)Nc4cc(C(=O)NCCCN(C)C)n(C)c4)n(C)c3)c2)c1` [Example 6], the “Minimum inhibitory concentrations (MICs), St. faecalis” value in experiment [1] (setting [8]) was determined as 50 µg/mL (≈ 85.8 µM). The MIC in experiment [1] (value outside parentheses) turned out to be 72 µM; in experiment [3] (value outside parentheses), 143 µM; in experiment [4] (value outside parentheses), 72 µM. In addition, the “Minimum inhibitory concentrations (MICs), A. niger” value in experiment [3] (setting [8]) was 100 µg/mL (≈ 172 µM). Moreover, the “Minimum inhibitory concentrations (MICs), S. aureus 2” value in experiment [4] (setting [8]) came out at 50 µg/mL (≈ 85.8 µM).
With `CN(C)CCCNC(=O)c1cc(NC(=O)c2cc(NC(=O)c3ccc(/C=C/c4ccncc4)cc3)cn2C)cn1C` [Example 7, N-[5-({[3-(Dimethylamino)propyl]amino}carbonyl)-1-methyl-1H-pyrrol-3-yl]-1-methyl-4-({4-[(E)-2-(4-pyridinyl)ethenyl]benzoyl}amino)-1H-pyrrole-2-carboxamide], the MIC was 25 µg/mL in experiment [1] (setting [6]); 37 µM in experiment [1] (setting [7]); 16 µg/mL in experiment [2] (setting [8]); 24 µM in experiment [2] (value outside parentheses); 50 µg/mL in experiment [4] (setting [11]); 75 µM in experiment [4] (setting [12]).
On to `CN(C)CCCNC(=O)c1cc(NC(=O)c2cc(NC(=O)c3cc(/C=C/c4ccc([N+](=O)[O-])cc4)cn3C)cn2C)cn1C` [Example 8, N-[5-({[5-({[3-(Dimethylamino)propyl]amino}carbonyl)-1-methyl-1H-pyrrol-3-yl]amino}carbonyl)-1-methyl-1H-pyrrol-3-yl]-1-methyl-4-[(E)-2-(4-nitrophenyl)-ethenyl]-1H-pyrrole-2-carboxamide], for which the MIC came to 50 µg/mL in experiment [1] (setting [6]); 70 µM in experiment [1] (setting [7]); 100 µg/mL in experiment [3] (setting [9]); 140 µM in experiment [3] (setting [10]); 50 µg/mL in experiment [4] (setting [11]); 70 µM in experiment [4] (setting [12]).
As to `Cn1cc(NC(=O)c2cc(NC(=O)c3cc(/C=C/c4ccc5ccccc5n4)cn3C)cn2C)cc1C(=O)NCCN1CCOCC1` [Example 11, 1-Methyl-N-[1-methyl-5-({[2-(4-morpholinyl)ethyl]amino}carbonyl)-1H-pyrrol-3-yl]-4-[({1-methyl-4-[(E)-2-(2-quinolinyl)ethenyl]-1H-pyrrol-2-yl}carbonyl)-amino]-1H-pyrrole-2-carboxamide], the MIC in experiment [2] (setting [8]) worked out at 4 µg/mL; in experiment [2] (value outside parentheses) it was 4.6 µM; in experiment [5] (Candida albicans, NCPF3179, value in parentheses, na = not active), 100 µg/mL; in experiment [5] (Candida albicans, NCPF3179, value outside parentheses) it was 134 µM.
As to `Cn1cc(NC(=O)c2cc(NC(=O)c3csc(/C=C/c4ccc5ccccc5n4)n3)cn2C)cc1C(=O)NCCN1CCOCC1` [Example 12, N-[1-Methyl-5-({[1-methyl-5-({[2-(4-morpholinyl)ethyl]amino}carbonyl)-1H-pyrrol-3-yl]amino}carbonyl)-1H-pyrrol-3-yl]-2-[(E)-2-(2-quinolinyl)ethenyl]-1,3-thiazole-4-carboxamide], the MIC in experiment [2] (setting [8]) is 8 µg/mL; in experiment [2] (value outside parentheses), 10 µM.
As for `Cn1cc(NC(=O)c2cc(NC(=O)c3ccc(/C=C/c4ccc5ccccc5c4)cc3)cn2C)cc1C(=O)NCCN1CCOCC1` [Example 13, 1-Methyl-N-[1-methyl-5-({[2-(4-morpholinyl)ethyl]amino}carbonyl)-1H-pyrrol-3-yl]-4-({4-[(E)-2-(2-naphthyl)ethenyl]benzoyl}amino)-1H-pyrrole-2-carboxamide], the MIC worked out at 100 µg/mL in experiment [1] (setting [6]); 136 µM in experiment [1] (setting [7]); 100 µg/mL in experiment [3] (setting [9]); 136 µM in experiment [3] (setting [10]); 50 µg/mL in experiment [4] (setting [11]); 68 µM in experiment [4] (setting [12]).
For `Cn1cc(NC(=O)c2cc(NC(=O)c3ccc(/C=C/c4cc5ccccc5nc4On4nnc5ccccc54)cc3)cn2C)cc1C(=O)NCCN1CCOCC1` [Example 14, 4-[(4-{(E)-2-[2-(1H-1,23-Benzotriazol-1-yloxy)-3-quinolinyl]ethenyl}benzoyl)-amino]-1-methyl-N-[1-methyl-5-({[2-(4-morpholinyl)ethyl]amino}carbonyl)-1H-pyrrol-3-yl]-1H-pyrrole-2-carboxamide], the “Minimum inhibitory concentrations (MICs), St. faecalis” value in experiment [1] (setting [8]) turned out to be 100 µg/mL (≈ 131 µM). Besides, the MIC stood at 114 µM in experiment [1] (value outside parentheses), 57 µM in experiment [3] (value outside parentheses), 114 µM in experiment [5] (value outside parentheses) and 57 µM in experiment [4] (value outside parentheses). Further, the “Minimum inhibitory concentrations (MICs), A. niger” value in experiment [3] (setting [8]) was 50 µg/mL (≈ 65.4 µM). Moreover, the “Minimum inhibitory concentrations (MICs), C. albicans” value in experiment [5] (setting [8]) amounted to 100 µg/mL (≈ 131 µM). Besides, the “Minimum inhibitory concentrations (MICs), S. aureus 2” value in experiment [4] (setting [8]) amounted to 50 µg/mL (≈ 65.4 µM).
For the molecule `Cn1cc(NC(=O)c2cc(NC(=O)c3ccc(/C=C/c4ccc5ccccc5n4)cc3)cn2C)cc1C(=O)NCCN1CCOCC1` [Example 15], the “Minimum inhibitory concentrations (MICs), A. niger” value in experiment [3] (setting [8]) turned out to be 100 µg/mL (≈ 158 µM). The MIC in experiment [3] (value outside parentheses), in experiment [5] (value outside parentheses) and in experiment [4] (value outside parentheses) was 134 µM throughout. For the same molecule, the “Minimum inhibitory concentrations (MICs), C. albicans” value in experiment [5] (setting [8]) stood at 100 µg/mL (≈ 158 µM). Moreover, in experiment [4] (setting [8]), the “Minimum inhibitory concentrations (MICs), S. aureus 2” value was determined as 100 µg/mL (≈ 158 µM).
As for `CC(C)CCc1sc(NC(=O)c2cc(NC(=O)c3ccc(/C=C/c4ccc5ccccc5n4)cc3)cn2C)nc1C(=O)NCCN1CCOCC1` [Example 19, 5-Isopentyl-2-({[1-methyl-4-({4-[(E)-2-(2-quinolinyl)ethenyl]benzoyl}amino)-1H-pyrrol-2-yl]carbonyl}amino)-N-[2-(4-morpholinyl)ethyl]-1,3-thiazole-4-carboxamide], the MIC stood at 100 µg/mL in experiment [3] (setting [9]) and 122 µM in experiment [3] (setting [10]).
